In assay [1] the test system is A375 (melanoma). Nature of the assay: In vitro cytotoxic activity MTT assay, A375. It counts as cell-based. The settings on record: Homo sapiens, A-375; A375 cells, exposed for 96 hours, 50% inhibition of cell proliferation; read-out: Cytotoxicity activity IC50, A375 (melanoma). The method, then:
(§1) Compounds 1-16 were screened for their in vitro cytotoxic activity utilizing a 3-(4,5-dimethyl-thiazol-2-yl)-2,5-diphenyltetrazolium bromide (MTT) assay against selected cancer human cell lines consisting of PC3 (prostate), HCT116 (colon), A375 (melanoma), H1299 (lung), MIAPaCa-2 (pancreas), HL60 (leukemia), MCF7 (breast), MDA-MB-231 (breast) (T. Mosmann, J. Immunol. Meth., 1983, 65, 55-63). The cells were cultured at 37° C. in RMPI1640 medium supplemented with 10% fetal bovine serum, 50 IU/mL penicillin, and 50 μg/mL streptomycin in a 5% CO2 incubator. All cells were sub-cultured 3 times/week by trypsinisation. Viable cells were seeded and allowed to adhere for 12 hours before a test drug was added in 96-well plates at an initial density of 1.0×10^5 cells/mL. Tumor cell lines were separately exposed to various concentrations of the tested compounds followed by incubation at a temperature of 37° C. during 96 hours inside a medium of fresh RMPI 1640. Cells were subsequently incubated at 37° C. using MTT at 0.5 mg/mL during 4 hours. After removal of supernatant, formazan crystals were dissolved in isopropanol and the optical density was measured at 570 nm. CX-4945 was used as a positive control.

Assay [2] deals with T1, recombinant human CK2 (RRββ-holoenzyme) (Homo sapiens, UniProt P68400).
T1 construct: purchased Millipore
T1 sequence (P68400 whole entry): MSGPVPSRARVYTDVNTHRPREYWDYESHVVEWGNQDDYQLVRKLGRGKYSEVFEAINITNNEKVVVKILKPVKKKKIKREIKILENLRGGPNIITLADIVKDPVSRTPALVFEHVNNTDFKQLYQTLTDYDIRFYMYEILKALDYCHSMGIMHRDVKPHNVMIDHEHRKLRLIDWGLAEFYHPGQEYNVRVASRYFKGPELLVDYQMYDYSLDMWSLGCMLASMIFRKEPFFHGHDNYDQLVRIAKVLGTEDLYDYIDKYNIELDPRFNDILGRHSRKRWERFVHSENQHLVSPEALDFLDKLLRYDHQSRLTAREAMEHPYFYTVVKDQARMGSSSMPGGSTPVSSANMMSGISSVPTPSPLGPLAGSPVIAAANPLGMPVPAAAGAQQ
T1 sequence (P67870 whole entry partner): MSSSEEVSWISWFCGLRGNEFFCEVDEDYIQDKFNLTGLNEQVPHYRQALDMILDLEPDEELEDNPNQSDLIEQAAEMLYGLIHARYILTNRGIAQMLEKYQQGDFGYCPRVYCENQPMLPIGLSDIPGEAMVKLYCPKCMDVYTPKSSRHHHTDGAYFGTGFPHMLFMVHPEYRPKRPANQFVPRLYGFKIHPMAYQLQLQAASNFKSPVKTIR
Nature of the assay: CK2 Kinase Assay (33P-ATP, filter plate). The format is biochemical. The settings on record: recombinant human CK2, final ATP 15 μM, 10 min at 30° C.; read-out: protein kinase CK2 IC50. The protocol: CK2 Kinase Assay was conducted using the protocol as described in Pierre F. et al; J. Med. Chem. 2011, 54, 635-654. The tested compounds in aqueous solution were added at a volume of 10 μL to a reaction mixture comprising 10 μL of assay dilution buffer (ADB; 20 mM MOPS, pH 7.2, 25 mM β-glycerol phosphate, 5 mM EGTA, 1 mM sodium orthovanadate, and 1 mM dithiothreitol), 10 μL of substrate peptide (RRRDDDSDDD, dissolved in ADB at a concentration of 1 mM), 10 μL of recombinant human CK2 (RRββ-holoenzyme, 25 ng dissolved in ADB; Millipore). Reactions were initiated by the addition of 10 μL of ATP solution (90% 75 mMMgCl2, 75 μM ATP (final ATP concentration:15 μM) dissolved in ADB; 10% [γ-33P] ATP (stock 1mCi/100 μL; 3000 Ci/mmol (Perkin-Elmer) and maintained for 10 min at 30° C. The reactions were quenched with 100 μL of 0.75% phosphoric acid and then transferred to and filtered through a phosphor cellulose filter plate (Millipore). After washing each well five times with 0.75% phosphoric acid, the plate was dried under vacuum for 5 min and, following the addition of 15 μL of scintillation fluid to each well, the residual radioactivity was measured using a Wallac […]. The IC50 values were derived from eight concentrations of test inhibitors.

Assay [3] has as its system PC3 (prostate). Kind of assay: In vitro cytotoxic activity MTT assay, PC3. The settings on record: Homo sapiens, PC-3; PC3 cells, exposed for 96 hours, 50% inhibition of cell proliferation; read-out: Cytotoxicity activity IC50, PC3 (prostate). It counts as cell-based. The protocol:
as §1

The subject of assay [4] is HCT116 (colon). Kind of assay: In vitro cytotoxic activity MTT assay, HCT116. The format is cell-based. The settings on record: Homo sapiens, HCT-116; HCT116 cells, exposed for 96 hours, 50% inhibition of cell proliferation; read-out: Cytotoxicity activity IC50, HCT116 (colon). The method, then: as §1
The test system of assay [5] is MIAPaCa-2 (pancreas). Nature of the assay: In vitro cytotoxic activity MTT assay, MIAPaCa-2. It counts as cell-based. The settings on record: Homo sapiens, MIA PaCa-2; MIAPaCa-2 cells, exposed for 96 hours, 50% inhibition of cell proliferation; read-out: Cytotoxicity activity IC50, MIAPaCa-2 (pancreas). The protocol:
as §1

Assay [6] deals with HL60 (leukemia). Nature of the assay: In vitro cytotoxic activity MTT assay, HL60. It counts as cell-based. The settings on record: Homo sapiens, HL-60; HL60 cells, exposed for 96 hours, 50% inhibition of cell proliferation; read-out: Cytotoxicity activity IC50, HL60 (leukemia). The method, then: as §1
The subject of assay [7] is H1299 (lung). Kind of assay: In vitro cytotoxic activity MTT assay, H1299. The format is cell-based. The settings on record: Homo sapiens, NCI-H1299; H1299 cells, exposed for 96 hours, 50% inhibition of cell proliferation; read-out: Cytotoxicity activity IC50, H1299 (lung). The method, then:
as §1

Assay [8] has as its system MCF7 (breast). Nature of the assay: In vitro cytotoxic activity MTT assay, MCF7. The format is cell-based. The settings on record: Homo sapiens; MCF7 cells, exposed for 96 hours, 50% inhibition of cell proliferation; read-out: Cytotoxicity activity IC50, MCF7 (breast). The protocol: as §1
The test system of assay [9] is MDA-MB-231 (breast). Nature of the assay: In vitro cytotoxic activity MTT assay, MDA-MB-231. The format is cell-based. The settings on record: Homo sapiens; MDA-MB-231 cells, exposed for 96 hours, 50% inhibition of cell proliferation; read-out: Cytotoxicity activity IC50, MDA-MB-231 (breast). The method, then:
as §1

Consider `O=C(O)c1n[nH]c2c1nc(Nc1cccc(Cl)c1)c1ccncc12` [Compound 1, 5-((3-chlorophenyl)amino)-1H-pyrazolo[4,3-c][2,6]naphthyridine-3-carboxylic acid], for which the IC50 in [1] worked out at 4.3 µM; in [2], 0.031 µM; in assay [3] it was 1.8 µM; in assay [4], 1.9 µM; in assay [5], 0.9 µM; in assay [6], 3 µM. In addition, the IC50 was 2.2 µM in assay [7], 4.9 µM in assay [8] and 4.1 µM in [9].
